Test results from patent US20250340557A1, “PYRIMIDINE DERIVATIVE” (ASKA PHARMACEUTICAL CO., LTD., priority 2022, published 2025).

target: T1, human mPGES-1 (Homo sapiens, UniProt O14684); assay: Test for mPGES-1 inhibitory activity (microsomal enzyme, PGE2 EIA); type: biochemical; settings: microsomes of COS-1 cells transfected with human mPGES-1 cDNA; PGH2 1 μM; 4° C., 4 minutes; PGE2 by EIA; read-out: h mPGES1 IC50
T1 construct: made in house; host or cells: COS-1 cells (transient transfection; microsomal fraction used as enzyme)
T1 sequence (O14684 1-152): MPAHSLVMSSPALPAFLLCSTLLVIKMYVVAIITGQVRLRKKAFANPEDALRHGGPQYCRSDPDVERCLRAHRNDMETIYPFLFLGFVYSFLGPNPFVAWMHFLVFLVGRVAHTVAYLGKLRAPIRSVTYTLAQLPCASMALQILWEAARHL
How it was run: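 IC50 values were derived from EIA-quantified PGE2 after a 4 min, 4 °C reaction with PGH2 at 1 μM final, stopped with ferric chloride/citric acid. Beforehand, compound (2% DMSO final) sat 15 min at 4 °C with human mPGES-1 microsomes from transiently transfected COS-1 cells. Buffer was sodium phosphate pH 7.2 containing 2.5 mM reduced glutathione and 1 mM EDTA.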

Row | IC50 [nM] | Structure (SMILES)
1 | 1.4 | CCc1cc(=O)[nH]c(-c2c(C(F)(F)F)ccc(CNC(=O)[C@H]3C[C@H](OCc4ccccc4C(F)(F)F)C3)c2F)n1 [Example 198, trans-N-[3-(4-ethyl-6-oxo-1,6-dihydropyrimidin-2-yl)-2-fluoro-4-(trifluoromethyl)benzyl]-3-{[2-(trifluoromethyl)benzyl]oxy}cyclobutane-1-carboxamide]
2 | 1.1 | CCc1cc(=O)[nH]c(-c2c(C(F)(F)F)ccc(CNC(=O)[C@H]3C[C@H](OCc4cccc(C(F)(F)F)c4)C3)c2F)n1 [Example 199, trans-N-[3-(4-ethyl-6-oxo-1,6-dihydropyrimidin-2-yl)-2-fluoro-4-(trifluoromethyl)benzyl]-3-{[3-(trifluoromethyl)benzyl]oxy}cyclobutane-1-carboxamide]
3 | 6.5 | CCc1cc(=O)[nH]c(-c2c(C(F)(F)F)ccc(CNC(=O)[C@H]3C[C@H](OCc4ccc(C(F)(F)F)cc4)C3)c2F)n1 [Example 200, trans-N-[3-(4-ethyl-6-oxo-1,6-dihydropyrimidin-2-yl)-2-fluoro-4-(trifluoromethyl)benzyl]-3-{[4-(trifluoromethyl)benzyl]oxy}cyclobutane-1-carboxamide]
4 | < 1 | CCc1cc(=O)[nH]c(-c2c(C(F)(F)F)ccc(CNC(=O)[C@H]3C[C@H](OCc4ccc(F)cc4F)C3)c2F)n1 [Example 201, trans-3-[(2,4-difluorobenzyl)oxy]-N-[3-(4-ethyl-6-oxo-1,6-dihydropyrimidin-2-yl)-2-fluoro-4-(trifluoromethyl)benzyl]cyclobutane-1-carboxamide]
5 | < 1 | CCc1cc(=O)[nH]c(-c2c(C(F)(F)F)ccc(CNC(=O)[C@H]3C[C@H](OCc4ccc(Cl)cc4F)C3)c2F)n1 [Example 202, trans-3-[(4-chloro-2-fluorobenzyl)oxy]-N-[3-(4-ethyl-6-oxo-1,6-dihydropyrimidin-2-yl)-2-fluoro-4-(trifluoromethyl)benzyl]cyclobutane-1-carboxamide]
6 | < 1 | CCc1cc(=O)[nH]c(-c2c(C(F)(F)F)ccc(CNC(=O)[C@H]3C[C@H](OCc4ccc(F)c(F)c4)C3)c2F)n1 [Example 203, trans-3-[(3,4-difluorobenzyl)oxy]-N-[3-(4-ethyl-6-oxo-1,6-dihydropyrimidin-2-yl)-2-fluoro-4-(trifluoromethyl)benzyl]cyclobutane-1-carboxamide]
7 | 13 | CCc1cc(=O)[nH]c(-c2c(C(F)(F)F)ccc(CNC(=O)[C@H]3C[C@H](OCc4cc(F)cc(F)c4)C3)c2F)n1 [Example 204, trans-3-[(3,5-difluorobenzyl)oxy]-N-[3-(4-ethyl-6-oxo-1,6-dihydropyrimidin-2-yl)-2-fluoro-4-(trifluoromethyl)benzyl]cyclobutane-1-carboxamide]
8 | 14 | CCc1cc(=O)[nH]c(-c2c(C(F)(F)F)ccc(CNC(=O)[C@H]3C[C@H](OCc4cccc(F)c4)C3)c2F)n1 [Example 205, trans-N-[3-(4-ethyl-6-oxo-1,6-dihydropyrimidin-2-yl)-2-fluoro-4-(trifluoromethyl)benzyl]-3-[(3-fluorobenzyl)oxy]cyclobutane-1-carboxamide]
9 | 15 | CCc1cc(=O)[nH]c(-c2c(C(F)(F)F)ccc(CNC(=O)[C@H]3C[C@H](OCc4cccc(F)c4F)C3)c2F)n1 [Example 206, trans-3-[(2,3-difluorobenzyl)oxy]-N-[3-(4-ethyl-6-oxo-1,6-dihydropyrimidin-2-yl)-2-fluoro-4-(trifluoromethyl)benzyl]cyclobutane-1-carboxamide]
10 | 9 | CCc1cc(=O)[nH]c(-c2c(C(F)(F)F)ccc(CNC(=O)[C@H]3C[C@H](OCc4ccc(F)cc4Cl)C3)c2F)n1 [Example 207, trans-3-[(2-chloro-4-fluorobenzyl)oxy]-N-[3-(4-ethyl-6-oxo-1,6-dihydropyrimidin-2-yl)-2-fluoro-4-(trifluoromethyl)benzyl]cyclobutane-1-carboxamide]
11 | 8.8 | CCc1cc(=O)[nH]c(-c2c(C(F)(F)F)ccc(CNC(=O)[C@H]3C[C@H](OCc4cccc(Cl)c4F)C3)c2F)n1 [Example 208, trans-3-[(3-chloro-2-fluorobenzyl)oxy]-N-[3-(4-ethyl-6-oxo-1,6-dihydropyrimidin-2-yl)-2-fluoro-4-(trifluoromethyl)benzyl]cyclobutane-1-carboxamide]
12 | 8.8 | CCc1cc(=O)[nH]c(-c2c(C(F)(F)F)ccc(CNC(=O)[C@H]3C[C@H](OCc4cc(Cl)ccc4F)C3)c2F)n1 [Example 209, trans-3-[(5-chloro-2-fluorobenzyl)oxy]-N-[3-(4-ethyl-6-oxo-1,6-dihydropyrimidin-2-yl)-2-fluoro-4-(trifluoromethyl)benzyl]cyclobutane-1-carboxamide]
13 | 7.9 | CCc1cc(=O)[nH]c(-c2c(C(F)(F)F)ccc(CNC(=O)[C@H]3C[C@H](OCc4ccc(F)c(Cl)c4)C3)c2F)n1 [Example 210, trans-3-[(3-chloro-4-fluorobenzyl)oxy]-N-[3-(4-ethyl-6-oxo-1,6-dihydropyrimidin-2-yl)-2-fluoro-4-(trifluoromethyl)benzyl]cyclobutane-1-carboxamide]
14 | 9.3 | CCc1cc(=O)[nH]c(-c2c(C(F)(F)F)ccc(CNC(=O)[C@H]3C[C@H](OCc4cc(F)cc(Cl)c4)C3)c2F)n1 [Example 211, trans-3-[(3-chloro-5-fluorobenzyl)oxy]-N-[3-(4-ethyl-6-oxo-1,6-dihydropyrimidin-2-yl)-2-fluoro-4-(trifluoromethyl)benzyl]cyclobutane-1-carboxamide]
15 | < 1 | Cc1nc(-c2c(C(F)(F)F)ccc(CNC(=O)[C@H]3C[C@H](OCc4ccccc4Cl)C3)c2F)[nH]c(=O)c1F [Example 212, trans-3-[(2-chlorobenzyl)oxy]-N-[2-fluoro-3-(5-fluoro-4-methyl-6-oxo-1,6-dihydropyrimidin-2-yl)-4-(trifluoromethyl)benzyl]cyclobutane-1-carboxamide]
16 | 11 | Cc1nc(-c2c(C(F)(F)F)ccc(CNC(=O)[C@H]3C[C@H](OCc4cccc(Cl)c4)C3)c2F)[nH]c(=O)c1F [Example 213, trans-3-[(3-chlorobenzyl)oxy]-N-[2-fluoro-3-(5-fluoro-4-methyl-6-oxo-1,6-dihydropyrimidin-2-yl)-4-(trifluoromethyl)benzyl]cyclobutane-1-carboxamide]
17 | 8.6 | Cc1nc(-c2c(C(F)(F)F)ccc(CNC(=O)[C@H]3C[C@H](OCc4ccc(Cl)cc4)C3)c2F)[nH]c(=O)c1F [Example 214, trans-3-[(4-chlorobenzyl)oxy]-N-[2-fluoro-3-(5-fluoro-4-methyl-6-oxo-1,6-dihydropyrimidin-2-yl)-4-(trifluoromethyl)benzyl]cyclobutane-1-carboxamide]
18 | 6.9 | Cc1nc(-c2c(C(F)(F)F)ccc(CNC(=O)[C@H]3C[C@H](OCc4ccccc4C(F)(F)F)C3)c2F)[nH]c(=O)c1F [Example 215, trans-N-[2-fluoro-3-(5-fluoro-4-methyl-6-oxo-1,6-dihydropyrimidin-2-yl)-4-(trifluoromethyl)benzyl]-3-{[2-(trifluoromethyl)benzyl]oxy}cyclobutane-1-carboxamide]
19 | 16 | Cc1nc(-c2c(C(F)(F)F)ccc(CNC(=O)[C@H]3C[C@H](OCc4cccc(C(F)(F)F)c4)C3)c2F)[nH]c(=O)c1F [Example 216, trans-N-[2-fluoro-3-(5-fluoro-4-methyl-6-oxo-1,6-dihydropyrimidin-2-yl)-4-(trifluoromethyl)benzyl]-3-{[3-(trifluoromethyl)benzyl]oxy}cyclobutane-1-carboxamide]
20 | 16 | Cc1nc(-c2c(C(F)(F)F)ccc(CNC(=O)[C@H]3C[C@H](OCc4ccc(C(F)(F)F)cc4)C3)c2F)[nH]c(=O)c1F [Example 217, trans-N-[2-fluoro-3-(5-fluoro-4-methyl-6-oxo-1,6-dihydropyrimidin-2-yl)-4-(trifluoromethyl)benzyl]-3-{[4-(trifluoromethyl)benzyl]oxy}cyclobutane-1-carboxamide]
21 | 13 | Cc1nc(-c2c(C(F)(F)F)ccc(CNC(=O)[C@H]3C[C@H](OCc4ccc(F)cc4F)C3)c2F)[nH]c(=O)c1F [Example 218, trans-3-[(2,4-difluorobenzyl)oxy]-N-[2-fluoro-3-(5-fluoro-4-methyl-6-oxo-1,6-dihydropyrimidin-2-yl)-4-(trifluoromethyl)benzyl]cyclobutane-1-carboxamide]
22 | 15 | Cc1nc(-c2c(C(F)(F)F)ccc(CNC(=O)[C@H]3C[C@H](OCc4ccc(Cl)cc4F)C3)c2F)[nH]c(=O)c1F [Example 219, trans-3-[(4-chloro-2-fluorobenzyl)oxy]-N-[2-fluoro-3-(5-fluoro-4-methyl-6-oxo-1,6-dihydropyrimidin-2-yl)-4-(trifluoromethyl)benzyl]cyclobutane-1-carboxamide]
23 | 15 | Cc1nc(-c2c(C(F)(F)F)ccc(CNC(=O)[C@H]3C[C@H](OCc4ccc(F)c(F)c4)C3)c2F)[nH]c(=O)c1F [Example 220, trans-3-[(3,4-difluorobenzyl)oxy]-N-[2-fluoro-3-(5-fluoro-4-methyl-6-oxo-1,6-dihydropyrimidin-2-yl)-4-(trifluoromethyl)benzyl]cyclobutane-1-carboxamide]
24 | 14 | Cc1nc(-c2c(C(F)(F)F)ccc(CNC(=O)[C@H]3C[C@H](OCc4cc(F)cc(F)c4)C3)c2F)[nH]c(=O)c1F [Example 221, trans-3-[(3,5-difluorobenzyl)oxy]-N-[2-fluoro-3-(5-fluoro-4-methyl-6-oxo-1,6-dihydropyrimidin-2-yl)-4-(trifluoromethyl)benzyl]cyclobutane-1-carboxamide]
